In general, logP refers to a log measure of how a compound divides between an organic and an aqueous phase.

Data set [1] deals with Plasmodium yoelii nigeriensis. Put plainly: Reduced parasitemia in multidrug-resistant Plasmodium yoelii nigeriensis infected Swiss mice (Mus musculus) at 48 mg/kg peroral dose after 4 days. Type of data set: functional. The arrangement: scale not given: the % may be the effect or the level left. The note with it: route oral.
The nature of data set [2]: Partition coefficient, log P of the compound. In kind it is physicochemical. The note with it: octanol/water.
The subject of data set [3] is Plasmodium yoelii nigeriensis. The data set is described as follows: Survival in multidrug-resistant Plasmodium yoelii nigeriensis infected Swiss mice (Mus musculus) at 12 mg/kg peroral dose after 28 days. In kind it is functional.
Data set [4] concerns Plasmodium yoelii nigeriensis. The data set is described as follows: Antimalarial activity as reduced parasitemia day 4 against multidrug-resistant Plasmodium yoelii nigeriensis infected Swiss mice (Mus musculus) at 24 mg/kg/day peroral dose over 4 days. The arrangement: scale not given: the % may be the effect or the level left. Type of data set: functional. The note with it: route oral.

Data set [5] concerns Plasmodium yoelii nigeriensis. Put plainly: Reduced parasitemia in multidrug-resistant Plasmodium yoelii nigeriensis infected Swiss mice (Mus musculus) at 12 mg/kg peroral dose after 4 days. Type of data set: functional. The arrangement: scale not given: the % may be the effect or the level left. The following applies: route oral.
A short description of data set [6]: Chemical stability in acidic solution containing tetrahydrofuran and 10% aqueous HCl after 96 hrs. In kind it is physicochemical. The note with it: acidic solution of tetrahydrofuran and 10% aqueous HCl; read-out: Stability.

Active and inactive are the calls of the source. No cut-off for these calls is given here.

As for `C[C@H]1[C@H](OC(=O)CC23CC4CC(CC(C4)C2)C3)O[C@@H]2O[C@]3(C)CC[C@H]4[C@H](C)CC[C@@H]1[C@@]24OO3`, the Activity in data set [1] was 100%; in data set [3] (route oral), 20%; in data set [4], 100%; in data set [5], 100%. Besides, the lipophilicity (logP) in data set [2] was 5.99.

Consider `C[C@H]1[C@H](OCC23CC4CC(CC(C4)C2)C3)O[C@@H]2O[C@]3(C)CC[C@H]4[C@H](C)CC[C@@H]1[C@@]24OO3`, for which the Activity in data set [5] worked out at 100%.

In the case of `C[C@H]1[C@H](OC(=O)CC2c3ccccc3-c3ccccc32)O[C@@H]2O[C@]3(C)CC[C@H]4[C@H](C)CC[C@@H]1[C@@]24OO3`, the Activity in data set [1], in data set [4] and in data set [5] was 100% each time. In data set [2], this molecule gave a lipophilicity (logP) of 6.79. In addition, the result in data set [3] was inactive.

Regarding `C[C@H]1[C@H](OC(=O)CCC23CC4CC(CC(C4)C2)C3)O[C@@H]2O[C@]3(C)CC[C@H]4[C@H](C)CC[C@@H]1[C@@]24OO3`, the Activity in data set [1], in data set [4] and in data set [5] was 100% each time. In addition, in data set [2], the logP is 6.41.

As for `C[C@H]1[C@H](OC(=O)COc2ccc(-c3ccccc3)cc2)O[C@@H]2O[C@]3(C)CC[C@H]4[C@H](C)CC[C@@H]1[C@@]24OO3`, the Activity in data set [1], in data set [4] and in data set [5] was 100% each time. Besides, the logP in data set [2] was found to be 6.53.

For the molecule `C[C@H]1[C@H](OC(=O)C23CC4CC(CC(C4)C2)C3)O[C@@H]2O[C@]3(C)CC[C@H]4[C@H](C)CC[C@@H]1[C@@]24OO3`, the Activity in data set [1], in data set [4] and in data set [5] was 100% each time. In addition, the lipophilicity (logP) in data set [2] is 6.05.

Consider `C[C@H]1[C@H](OCc2ccc(-c3ccccc3)cc2)O[C@@H]2O[C@]3(C)CC[C@H]4[C@H](C)CC[C@@H]1[C@@]24OO3`, for which the Activity in data set [5] came to 100%.

With `C[C@H]1[C@H](OC(=O)CC2C3CC4CC(C3)CC2C4)O[C@@H]2O[C@]3(C)CC[C@H]4[C@H](C)CC[C@@H]1[C@@]24OO3` (some centres not stated), the Activity in data set [1], in data set [4] and in data set [5] was 100% throughout. This molecule also yielded a logP in data set [2] of 5.85.

As for `C[C@H]1[C@H](OC(=O)c2ccc(-c3ccccc3)cc2)O[C@@H]2O[C@]3(C)CC[C@H]4[C@H](C)CC[C@@H]1[C@@]24OO3`, the Activity in data set [1] and in data set [4] was 100% in each case. In data set [2], this molecule came in with a logP of 6.95.

Consider `C[C@H]1[C@H](OC(=O)CCC(=O)O)O[C@@H]2O[C@@]3(C)CC[C@H]4[C@H](C)CC[C@@H]1[C@@]24OO3` [ARTESUNATE], for which the Activity in data set [1] and in data set [4] was 100% in each case.

Consider `C[C@H]1[C@H](OC(=O)Cc2ccc(-c3ccccc3)cc2)O[C@@H]2O[C@]3(C)CC[C@H]4[C@H](C)CC[C@@H]1[C@@]24OO3`, for which the Activity in data set [1] and in data set [4] was 100% throughout. Moreover, the logP in data set [2] turned out to be 6.89.

Consider `C[C@H]1[C@H](OC(=O)C2c3ccccc3-c3ccccc32)O[C@@H]2O[C@]3(C)CC[C@H]4[C@H](C)CC[C@@H]1[C@@]24OO3`, for which the Activity in data set [1], in data set [4] and in data set [5] was 100% in each case. This molecule gave a logP in data set [2] of 6.61. For the same molecule, the remaining at 96 h in data set [6] was 80%.

Consider `CCO[C@H]1O[C@@H]2O[C@@]3(C)CC[C@H]4[C@H](C)CC[C@@H]([C@H]1C)[C@@]24OO3` [ARTEMOTIL], for which the Activity in data set [1] and in data set [4] was 100% each time.

For `C[C@H]1[C@H](OC(=O)COc2ccccc2-c2ccccc2)O[C@@H]2O[C@]3(C)CC[C@H]4[C@H](C)CC[C@@H]1[C@@]24OO3`, the Activity in data set [1], in data set [4] and in data set [5] was 100% throughout. Also, the lipophilicity (logP) in data set [2] came out at 6.53.

The record behind these values is ChEMBL document CHEMBL1143215, “Orally active esters of dihydroartemisinin: Synthesis and antimalarial activity against multidrug-resistant Plasmodium yoelii in mice” (Bioorg Med Chem Lett, 2008).
